Patent US20250236596A1, “HYDROXYLAMINE-BASED EGFR INHIBITORS FOR TREATMENT OF CANCER WITH BRAIN METASTASES” (University of Georgia Research Foundation, Inc., priority 2022, published 2025)

Key:
MDCKII-MDR1 cells = experiment: MDCKII-MDR1 cell permeability assay; assay type: in vitro ADME, canine; details: result in words
Method: Compounds were evaluated at Pharmaron Inc. for their ability to permeate Caco-2 cells and MDCKII-MDR1 cells. A 96-well HTS Transwell plate (Corning) was used for the Caco-2 and MDCKII-MDR1 cell seeding. Caco-2 cells were seeded at a density of 6.86×10^5 cells/mL and cultivated for 14-18 days prior to assays. MDCKII-MDR1 cells were seeded at a density of 1.56×10^6 cells/mL and cultivated for 4-8 days prior to assays. To determine the rate of drug transport in both the absorptive (apical to basolateral (A-B)) and secretory (basolateral to apical (B-A)) directions, compounds (5 μM in DMSO for Caco-2 cells, and 1 μM in DMSO for MDCKII-MDR1 cells) were added to the donor wells. Plates were incubated at 37° C. for 2 h and samples (50 μL) were taken at the beginning and end of the incubation in both the donor and acceptor wells with the assay run in duplicate (n=2). Samples were analyzed by LC-MS/MS. The apparent permeability coefficient (Papp) in units (cm/s×10^−6) was calculated using the following equation.
where, VA represents the volume (mL) in the acceptor well. Area is the surface of the membrane (0.143 cm^2 for Transwell-96 well plate) and time is the total transport time in sec.
The efflux ratio was determined using the following equation: Efflux ratio=Papp (B-A)/Papp(A-B)
Where, Papp (B-A) indicates the apparent permeability in the basolateral to apical direction, and Papp (A-B) indicates the apparent permeability in the apical to basolateral direction.

CYP1A2 = CYP1A2 (Homo sapiens, UniProt P05177); experiment: Human CYP450 inhibition in human liver microsomes, CYP1A2; assay type: in vitro ADME; details: pooled human liver microsomes, probe phenacetin (40 μM), O-demethylation
Method: Assessment of compound 15 was carried out at Pharmaron Inc. for its potential to inhibit cytochrome P450 (CYP) isoforms using human liver microsomes. The activities tested were CYP1A2-mediated phenacetin O-demethylation, CYP2C19-mediated (S)-mephenytoin 4′-hydroxylation, CYP2C9-mediated diclofenac 4′-hydroxylation, CYP2D6-mediated dextromethorphan O-demethylation and CYP3A4-mediated midazolam 1′-hydroxylation. Concentrations of substrates were phenacetin (40 μM), mephenytoin (50 μM), diclofenac (6 μM), dextromethorphan (2 μM) and midazolam (1 μM). Probe substrates phenacetin, mephenytoin and dextromethorphan were incubated at 37° for 20 min. Probe substrates diclofenac and midazolam were incubated at 37° for 5 min. […] The reactions were initiated by adding NADPH (1 mM final concentration) after a 5 min-preincubation and the assay was ran in duplicate (n=2). Samples were analyzed by UPLC-MS/MS.

[1] = test system: NCI-H1975 (EGFR L858R/T790M); experiment: CellTiter-Glo viability assay, NCI-H1975; assay type: cell-based, human; details: 72 h, result in words
Method: The A431, HCC827, SK-BR-3, ZR-75-30, AU565 and Caco-2 cell lines were obtained from ATCC. The NCI-H1975 cell line was obtained from SIBS. The NCI-H3255 cell line was obtained from CoBioer. Engineered Ba/F3 cell lines were obtained from Crown Bioscience. MCKII-MDR1 cells were obtained from the Netherlands Cancer Institute. HEK293 cells were obtained from Invitrogen. A431 cells were cultured in DMEM (Life Technologies) with 10% FBS. HCC827, NCI-H1975 and AU565 cells were cultured in RPMI1640 (Invitrogen) with 10% FBS. NCI-H3255 cells were cultured in BEGM (Lonza) with 10% FBS. Ba/F3 EGFR-del E746_A750/C797S and Ba/F3 EGFR-L858R/C797S cells were cultured in RPMI (Invitrogen) with 10% FBS. SK-BR-3 cells were cultured in McCoy's 5a (Invitrogen) with 10% FBS. ZR-75-30 cells were cultured in RPMI1640 (Invitrogen) with 20% FBS. BT474 cells were cultured in DMEM (Gibco) with 10% FBS and 10 μg/mL Insulin. Caco-2 and MCKII-MDR1 culture information is given in the permeability studies section. […]
Viability assays using A431, HCC827, NCI-H1975, NCI-H3255, Ba/F3 EGFR-del E746_A750/C797S, Ba/F3 EGFR-L858R/C797S, AU565, SK-BR-3 and ZR-75-30 cells were performed at Crown BioScience. […] Dose-response curves were generated and used to calculate the IC50 values which were calculated on GraphPad Prism from the non-linear regression equation fitted with a sigmoidal dose response and are presented as the mean±SEM.

HER2 = biological target: T1, HER2 (Homo sapiens, UniProt P04626); experiment: Follow-up KdELECT binding, HER2
T1 construct: purchased Eurofins DiscoverX (contract assay, KINOMEScan KdELECT)
Method: In vitro kinase activity (inhibitor binding constants (Kd) and biochemical inhibition (IC50's)) were assessed by Eurofins DiscoverX (Kd determinations) and Eurofins Cerep (biochemical IC50 determinations).

Sequence of CYP1A2 (P05177 whole entry, canonical isoform): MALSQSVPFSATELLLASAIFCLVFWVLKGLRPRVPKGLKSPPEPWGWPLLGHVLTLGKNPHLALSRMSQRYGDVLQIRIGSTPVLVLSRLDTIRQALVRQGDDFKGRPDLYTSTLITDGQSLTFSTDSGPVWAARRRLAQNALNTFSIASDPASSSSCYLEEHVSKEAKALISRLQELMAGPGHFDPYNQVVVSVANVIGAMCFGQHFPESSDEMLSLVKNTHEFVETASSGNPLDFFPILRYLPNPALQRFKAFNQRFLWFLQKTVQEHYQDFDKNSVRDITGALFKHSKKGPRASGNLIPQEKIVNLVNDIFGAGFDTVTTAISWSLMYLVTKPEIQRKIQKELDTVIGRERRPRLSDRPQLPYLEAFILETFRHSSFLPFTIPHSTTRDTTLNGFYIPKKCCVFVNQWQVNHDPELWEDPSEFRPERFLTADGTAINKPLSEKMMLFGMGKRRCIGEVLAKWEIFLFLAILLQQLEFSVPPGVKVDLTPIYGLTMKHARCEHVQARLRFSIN
T1 sequence (P04626 23-1255): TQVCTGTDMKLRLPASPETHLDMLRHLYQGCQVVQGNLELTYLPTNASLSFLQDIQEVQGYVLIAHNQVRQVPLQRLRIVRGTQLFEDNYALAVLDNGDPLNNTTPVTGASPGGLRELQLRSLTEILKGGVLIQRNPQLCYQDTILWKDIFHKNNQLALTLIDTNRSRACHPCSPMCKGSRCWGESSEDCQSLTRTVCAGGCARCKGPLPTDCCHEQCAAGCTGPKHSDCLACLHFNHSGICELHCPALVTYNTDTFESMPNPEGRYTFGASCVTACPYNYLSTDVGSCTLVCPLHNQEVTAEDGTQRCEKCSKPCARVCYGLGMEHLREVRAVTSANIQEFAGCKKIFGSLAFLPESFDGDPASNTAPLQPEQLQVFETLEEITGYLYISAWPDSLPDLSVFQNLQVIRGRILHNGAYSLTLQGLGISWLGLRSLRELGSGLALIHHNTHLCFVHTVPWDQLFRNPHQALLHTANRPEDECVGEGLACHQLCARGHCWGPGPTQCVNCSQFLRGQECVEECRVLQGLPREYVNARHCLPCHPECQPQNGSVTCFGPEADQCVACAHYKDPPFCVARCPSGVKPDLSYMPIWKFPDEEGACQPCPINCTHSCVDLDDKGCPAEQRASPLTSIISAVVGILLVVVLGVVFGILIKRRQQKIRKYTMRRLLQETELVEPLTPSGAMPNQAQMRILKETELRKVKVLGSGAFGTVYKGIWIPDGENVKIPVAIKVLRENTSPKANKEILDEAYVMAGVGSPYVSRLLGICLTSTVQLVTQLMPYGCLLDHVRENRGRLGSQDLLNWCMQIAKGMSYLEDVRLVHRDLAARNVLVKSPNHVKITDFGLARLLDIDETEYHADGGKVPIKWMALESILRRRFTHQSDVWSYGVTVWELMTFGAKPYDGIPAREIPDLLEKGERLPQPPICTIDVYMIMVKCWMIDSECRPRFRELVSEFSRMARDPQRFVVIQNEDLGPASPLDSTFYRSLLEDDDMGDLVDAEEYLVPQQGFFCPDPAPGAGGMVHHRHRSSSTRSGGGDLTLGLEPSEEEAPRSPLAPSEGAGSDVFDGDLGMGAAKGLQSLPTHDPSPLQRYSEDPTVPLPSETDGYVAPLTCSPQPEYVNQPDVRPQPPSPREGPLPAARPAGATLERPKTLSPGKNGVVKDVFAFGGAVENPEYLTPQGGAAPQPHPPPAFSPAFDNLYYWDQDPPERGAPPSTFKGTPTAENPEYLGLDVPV

## COc1cc2ncnc(Nc3cccc(Cl)c3F)c2cc1OCCON1CCN(C)CC1 [Compound 15, N-(3-chloro-2-fluorophenyl)-7-methoxy-6-(2-((4-methylpiperazin-1-yl)oxy)ethoxy)quinazolin-4-amine]
MDCKII-MDR1 cells
  efflux: low efflux
  permeability: excellent permeability
CYP1A2
  IC50 at 20 min: > 30000 nM
[1]
  antiproliferative activity: no activity
HER2
  Kd: 21 nM
